Experimental data as given in patent publication US20250152706A1, “COMPOSITIONS FOR ORAL DELIVERY OF BIOTHERAPEUTICS” (INTRACT PHARMA LIMITED, priority 2022, published 2025).
“Also recorded” adds a separate entry of the source. Like-named read-outs stand apart in the source and are kept apart here.

Columns and labels:
[1] = Stability of infliximab in human colon fluid (human colon model), SE-HPLC; assay type: in vitro ADME; settings: for effect of the excipient on infliximab stability, in words: human colon fluid, Examples 1 and 4
Protocol: A human colonic model based on a mixed faecal inoculum was used to mimic the luminal environment of the human large intestine. […] The basal media provides nutrients and growth factors to the microbiota allowing viability for up to 24 hours. The homogenized bacterial media was sieved through an open mesh fabric (SefarNitex™, pore size 350 μm) to remove any nonhomogeneous fibrous material. The pH was maintained at approximately 7.0 to mimic the colonic luminal pH of the human.
Stability of the drug/antibody infliximab in human colon fluid was measured with and without 5-ALA at varying concentrations. Each experiment was conducted in duplicate/triplicate.
Stability of the drug infliximab in human colon fluid was measured with and without 5-ALA and L-arginine at varying concentrations. Each experiment was conducted in duplicate/triplicate.
Stability of the drug infliximab in human colon fluid was measured with and without 5-ALA and aprotinin at varying pH. Each experiment was conducted in duplicate/triplicate.
Each experiment was conducted in duplicate/triplicate.

[2] = Ussing chamber penetration of infliximab into rat small intestine tissue, ELISA; settings: 2 h, Examples 8-10
Protocol: (§1) The chambers are made of solid acrylic and supports the tissue membrane in such a way that each side of the membrane is isolated and faces a different chamber representing the luminal (apical) and blood (basal) compartments. The working system consists of a unit to fit a maximum of six vertical chambers, a gas manifold for carbogen purging (95% O2, 5% CO2) and a heater block to maintain the temperature of the chambers at 37° C. during the experiments with the use of a circulating water bath. The chambers are two-piece assemblies held together by a high spring-tension retaining ring to ensure leak-free operation during the experiments. […]
(§2) For the tissue penetration studies, the freshly excised small intestine (jejunum) and proximal colon tissue of healthy wistar rats was collected and transferred to an ice-cold solution of Krebs-Bicarbonate Ringer solution (KBr) of pH 7.4. […] The TEER was continuously monitored during the experiment to confirm the viability and integrity of the tissue. […]
(§3) Infliximab sample analysis (permeability studies) was performed using an indirect ELISA platform assay. […] The plate was read at a wavelength of 650 nm with the plate reader (Synergy LX Multimode Reader, Biotek).
(§4) Permeability of the drug infliximab across rat small intestine (jejunum) and colon tissue was measured with and without 5-ALA and the base, L-arginine. […]

[3] = Ussing chamber penetration of infliximab into rat colon tissue, ELISA; settings: 2 h
Protocol: as §1, §2, §3, §4

[4] = Ussing chamber penetration of oxytocin into rat colon tissue, RP-HPLC; assay type: in vitro ADME; settings: Example 12
Protocol: as §1, §2
(§5) Permeability of the drug oxytocin across rat small intestine (jejunum) and colon tissue was measured with and without 5-ALA. The peptide in the tissue at 2 h and was measured by RP-HPLC.

[5] = Stability of oxytocin in rat caecum slurry, RP-HPLC; settings: for effect of the excipient on oxytocin stability, in words: rat caecum slurry, Examples 6 and 7; for remaining at 2 h, 1 mg/ml: Wistar, rat, pH 5.5, % Drug at T = 2 h, oxytocin 1 mg/ml, aprotinin 1 mg/ml in rat caecum slurry
Protocol: The rat caecum slurry was based on combination of cecum and proximal colon fluids collected from healthy wistar rats weighing 250 g. The fluids were collected immediately after sacrificing the rats and transferred to an anaerobic workstation (Electrotek 500TG™ workstation, Electrotek, West Yorkshire, UK) maintained at 37° C. and 70% relative air humidity. The fluids were diluted with freshly prepared basal medium to obtain a 50% w/w caecum fluid by homogenization. The homogenized mixture was sieved through an open mesh fabric. The pH of the fluid was measured as 5.5.
Peptide stock solution (oxytocin) were prepared in PBS at 2 mg/ml concentrations. Concentrations of 10 mg/ml and 40 mg/ml 5-ALA, 40 mg/ml methyl-ALA, 40 mg/ml hexyl-ALA and 2 mg/ml aprotinin were prepared. Stock solutions containing certain oxytocin combinations were added to 50% rat caecum slurry to obtain incubation concentrations (Examples 6 and 7) of 1 mg/ml peptide, 5 mg/ml or 20 mg/ml 5-ALA, 20 mg/ml methyl-ALA, 20 mg/ml hexyl-ALA, 1 mg/ml aprotinin, and 25% w/w rat caecum slurry. Samples were withdrawn at appropriate time points and added to 0.1N HCl solution in a ratio of 1:3. The samples were centrifuged at 9.6 g for 10 mins and the supernatant was analysed by reversed phase-HPLC (RP-HPLC).
A 150×4.6-mm Luna 5 μm C18 100 Å (Phenomenex, Torrance, CA) column was used using a gradient system as below:
Each sample's injection volume was 20 μl, the mobile phase flow rate was 1 ml/min and the peptide was detected at 214 nm. Each sample was run for 23 mins.
Stability of the drug oxytocin in rat caecum slurry was measured with and without 5-ALA and aprotinin, an enzyme inhibitor. Each experiment was conducted in duplicate/triplicate. The oxytocin remaining at different time points was measured by RP-HPLC.
Stability of the drug oxytocin in rat caecum slurry was measured with and without methyl-ALA, hexyl-ALA and aprotinin, an enzyme inhibitor. Each experiment was conducted in duplicate/triplicate. The oxytocin remaining at different time points was measured by RP-HPLC.

[6] = Protocol: Antibody stock solution (infliximab) was prepared in PBS at a 2 mg/ml concentration. 5-ALA was prepared at concentrations 10, 20 or 40 mg/ml. Methyl-ALA, hexyl-ALA, salcaprozate sodium, (SNAC) and sodium chenodeoxycholate were prepared at 20 mg/ml concentrations. The base L-arginine was prepared at 11, 22 or 44 mg/ml, and the stabiliser aprotinin was prepared at a 2 mg/ml concentration.
A 300×8.0-mm YMC-Pack Diol-200 S-5 μm, 20 nm (YMC Co Ltd, Kyoto, Japan) size exclusion (SE) chromatography column was used for sample separation using phosphate buffer saline (pH 7.3) prepared in sterile HPLC grade water as the mobile phase for elution, at a flow rate of 0.5 ml/min. The analysis was operated at room temperature and UV detection wavelength was set at 214 nm. Each sample was run for 40 minutes to allow complete elution of the sample proteins and reduce run-over.
Stability of the drug infliximab in rat caecum slurry was measured with and without SNAC, sodium chenodeoxycholate, hexyl-ALA and aprotinin. Each experiment was conducted in duplicate/triplicate. The antibody remaining at different time points was measured by SE-HPLC.

[7] = Ussing chamber penetration of oxytocin into rat small intestine tissue, RP-HPLC; settings: 2 h, Examples 12-14
Protocol: as §1, §2, §5
Permeability of oxytocin across rat small intestine (jejunum) was measured with and without 5-ALA, methyl-ALA and hexyl-ALA. The peptide in the tissue at 2 h and was measured by RP-HPLC. […]

[8] = Example 1, infliximab 1 mg/ml in human colon fluid, 5-ALA.HCl 5 mg/ml (pH 5.5), 10 mg/ml (pH 4.9), 20 mg/ml (pH 4.1)
[9] = Example 2, infliximab 1 mg/ml in human colon fluid, 5-ALA phosphate + L-arginine 5 + 5.5 mg/ml (pH 6.4), 10 + 11 mg/ml (6.5), 20 + 22 mg/ml (pH 6.5), 5-ALA phosphate 20 mg/ml + NaOH (pH 6.4)
[10] = Example 4, infliximab 1 mg/ml, 5-ALA.HCl / methyl-ALA / hexyl-ALA 10 mg/ml, aprotinin 1 mg/ml in human colon fluid, pH 6.5

In the case of NCC(=O)CCC(=O)O [Formulation 5-ALA, 5-aminolevulinic acid], the “effect of the excipient on infliximab stability, in words” value [1] is reported as “provides antibody stability; also recorded: does not stabilize the antibody in a dose dependent manner”, the “effect of the excipient on infliximab permeation / tissue uptake, in words” value [2] is reported as “did not lead to permeation or improved tissue uptake of infliximab” and the “effect of the excipient on infliximab permeation / tissue uptake, in words” value ([3]; rat colon tissue, Example 8) is reported as “did not lead to permeation or improved tissue uptake of infliximab”. The “effect of the excipient on oxytocin permeation / tissue level, in words” value ([4]; rat colon tissue, 2 h) was “acts as a permeability enhancer and increases the amount of oxytocin” and the “effect of the excipient on oxytocin stability, in words” value [5] was “acts as a stabiliser and increases the amount of peptide present in the caecum slurry”.

In the case of CC[C@H](C)[C@@H]1NC(=O)[C@H](Cc2ccc(O)cc2)NC(=O)[C@@H](N)CSSC[C@@H](C(=O)N2CCC[C@H]2C(=O)N[C@@H](CC(C)C)C(=O)NCC(N)=O)NC(=O)[C@H](CC(N)=O)NC(=O)[C@H](CCC(N)=O)NC1=O [Oxytocin], the “% Drug in colon tissue at 2 h” value ([4]; oxytocin 1 mg/ml, 5-ALA.HCl 20 mg/ml) is reported as 0.0 ± 0.0%, the remaining at 2 h, 1 mg/ml ([5]; Example 6, 5-ALA.HCl 20 mg/ml) is reported as 10.9 ± 3.4% and the remaining at 2 h, 1 mg/ml ([5]; Example 7, methyl-ALA / hexyl-ALA 20 mg/ml) is reported as 5 ± 2%.

For O=C([O-])CCCCCCCNC(=O)c1ccccc1O.[Na+] [SNAC, salcaprozate sodium], the “effect of the excipient on infliximab stability, in words” value [6] was “provide no stabilisation”.

For CCCCCCOC(=O)CCC(=O)CN [hexyl-ALA, hexyl aminolevulinic acid], the “effect of the excipient on infliximab stability, in words” value [1] was “greater antibody stabilisation”, the “effect of the excipient on infliximab stability, in words” value [6] was “provide good antibody stability” and the “effect of the excipient on oxytocin stability, in words” value [5] was “provide some peptide stabilisation”.

For COC(=O)CCC(=O)CN [methyl-ALA, methyl aminolevulinic acid], the “effect of the excipient on infliximab stability, in words” value [1] was “greater antibody stabilisation”.

With CCCCCCCCCC(=O)[O-].[Na+] [sodium caprate] the “effect of the excipient on infliximab tissue level, in words” value ([3]; rat colon tissue pre-treated with NAC, Example 11) was “may have led to increased tissue levels of antibody” and the “effect of the excipient on oxytocin permeation / tissue level, in words” value [7] was “greatest increase in oxytocin tissue levels”.

For C[C@H](CCC(=O)[O-])[C@H]1CC[C@H]2[C@@H]3[C@H](O)C[C@@H]4C[C@H](O)CC[C@]4(C)[C@H]3CC[C@]12C.[Na+] [sodium chenodeoxycholate], the “effect of the excipient on infliximab stability, in words” value [6] was “provide no stabilisation”.

For “Infliximab: monoclonal antibody; existing commercial IBD therapeutic antibody, tested alone as control”, the “% Drug at T = 2 h” value [1, 8] was 21.5 ± 0.0%, the “% Drug at T = 4 h” value [1, 8] was 7.8 ± 0.0% and the “% Drug at T = 2 h” value [1, 9] was 16.5 ± 0.4%. For the same molecule, the “% Drug at T = 4 h” value [1, 9] was 6.5 ± 0.3%, the “% Drug at T = 2 h” value [1, 10] was 37.6 ± 3.5% and the “% Drug at T = 4 h” value [1, 10] was 16.1 ± 0.6%.

With aprotinin the “effect of the excipient on infliximab stability, in words” value [6] was “provides an antibody stabilisation effect”.
